The results in this text go back to ChEMBL document CHEMBL5291721, “A preclinical secondary pharmacology resource illuminates target-adverse drug reaction associations of marketed drugs” (Nat Commun, 2023).

In general, AC50 refers to the midpoint of the concentration-response curve, whichever way the signal moves. A high value points to activity only at high concentration.

Experiment [1] deals with T1, 5-hydroxytryptamine receptor 1A (Homo sapiens, UniProt P08908).
T1 sequence (P08908 whole entry): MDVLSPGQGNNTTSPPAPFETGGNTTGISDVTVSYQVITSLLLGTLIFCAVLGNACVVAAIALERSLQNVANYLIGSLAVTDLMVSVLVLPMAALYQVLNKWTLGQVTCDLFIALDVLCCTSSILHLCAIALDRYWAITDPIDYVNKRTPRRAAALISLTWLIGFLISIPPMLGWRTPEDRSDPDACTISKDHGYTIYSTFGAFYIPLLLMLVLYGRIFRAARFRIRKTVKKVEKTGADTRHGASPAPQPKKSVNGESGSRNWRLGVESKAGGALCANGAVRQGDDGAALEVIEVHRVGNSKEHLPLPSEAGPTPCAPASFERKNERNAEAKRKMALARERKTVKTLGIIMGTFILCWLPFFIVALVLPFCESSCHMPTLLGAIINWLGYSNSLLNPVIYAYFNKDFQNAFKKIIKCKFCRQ

The target in experiment [2] is T2, Muscarinic acetylcholine receptor M2 (Homo sapiens, UniProt P08172).
T2 sequence (P08172 whole entry): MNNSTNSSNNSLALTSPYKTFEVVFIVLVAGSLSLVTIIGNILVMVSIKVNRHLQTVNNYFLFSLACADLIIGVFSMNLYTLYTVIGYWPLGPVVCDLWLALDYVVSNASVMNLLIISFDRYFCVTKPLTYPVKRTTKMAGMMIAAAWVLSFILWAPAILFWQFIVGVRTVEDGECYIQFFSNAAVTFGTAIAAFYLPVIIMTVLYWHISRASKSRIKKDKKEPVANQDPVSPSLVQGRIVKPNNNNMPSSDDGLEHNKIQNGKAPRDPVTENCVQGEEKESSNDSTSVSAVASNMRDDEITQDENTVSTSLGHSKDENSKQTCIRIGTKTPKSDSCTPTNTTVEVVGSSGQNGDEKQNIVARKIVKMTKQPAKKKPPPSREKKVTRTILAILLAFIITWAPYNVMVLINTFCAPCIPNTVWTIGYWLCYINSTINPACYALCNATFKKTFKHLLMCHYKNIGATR

Experiment [3] deals with T3, Muscarinic acetylcholine receptor M1 (Homo sapiens, UniProt P11229).
T3 sequence (P11229 whole entry): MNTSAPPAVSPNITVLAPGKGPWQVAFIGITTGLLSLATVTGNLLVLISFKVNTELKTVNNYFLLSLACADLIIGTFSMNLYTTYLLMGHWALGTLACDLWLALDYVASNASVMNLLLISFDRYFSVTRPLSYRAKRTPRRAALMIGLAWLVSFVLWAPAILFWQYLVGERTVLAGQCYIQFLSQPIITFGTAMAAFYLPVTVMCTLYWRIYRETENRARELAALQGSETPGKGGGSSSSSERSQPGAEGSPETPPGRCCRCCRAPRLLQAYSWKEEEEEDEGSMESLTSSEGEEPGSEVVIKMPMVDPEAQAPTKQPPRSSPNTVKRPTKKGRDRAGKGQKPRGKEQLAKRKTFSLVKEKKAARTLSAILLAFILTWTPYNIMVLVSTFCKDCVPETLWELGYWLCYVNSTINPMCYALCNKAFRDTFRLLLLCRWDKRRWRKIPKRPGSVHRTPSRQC
The class given is functional, cell-based.

Experiment [4] concerns the target T4, Type-1 angiotensin II receptor (Homo sapiens, UniProt P30556).
T4 sequence (P30556 whole entry): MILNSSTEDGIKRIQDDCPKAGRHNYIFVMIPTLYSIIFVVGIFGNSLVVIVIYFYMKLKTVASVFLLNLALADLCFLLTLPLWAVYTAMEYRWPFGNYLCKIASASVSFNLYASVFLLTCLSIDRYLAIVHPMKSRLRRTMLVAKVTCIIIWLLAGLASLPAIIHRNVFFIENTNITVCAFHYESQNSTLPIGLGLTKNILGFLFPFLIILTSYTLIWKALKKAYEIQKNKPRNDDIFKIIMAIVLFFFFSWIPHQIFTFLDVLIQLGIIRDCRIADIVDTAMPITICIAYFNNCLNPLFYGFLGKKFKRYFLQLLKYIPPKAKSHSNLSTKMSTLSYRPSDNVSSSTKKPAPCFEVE

In experiment [5] the target is T4, Type-1 angiotensin II receptor. The source holds these as a separate data set.
For experiment [6], the target named is T5, Type-2 angiotensin II receptor (Homo sapiens, UniProt P50052).
T5 sequence (P50052 whole entry): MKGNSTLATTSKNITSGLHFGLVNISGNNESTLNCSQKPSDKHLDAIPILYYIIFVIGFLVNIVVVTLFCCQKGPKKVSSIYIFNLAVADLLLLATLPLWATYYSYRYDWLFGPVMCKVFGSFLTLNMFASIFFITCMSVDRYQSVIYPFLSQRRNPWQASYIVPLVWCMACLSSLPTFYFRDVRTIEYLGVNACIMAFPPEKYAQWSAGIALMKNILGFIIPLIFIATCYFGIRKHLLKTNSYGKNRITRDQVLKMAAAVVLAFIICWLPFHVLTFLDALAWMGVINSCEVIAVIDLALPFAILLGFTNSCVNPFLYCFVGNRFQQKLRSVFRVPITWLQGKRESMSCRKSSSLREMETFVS
The class given is functional.

Experiment [7] deals with T6, Thromboxane A2 receptor (Homo sapiens, UniProt P21731).
T6 sequence (P21731 whole entry): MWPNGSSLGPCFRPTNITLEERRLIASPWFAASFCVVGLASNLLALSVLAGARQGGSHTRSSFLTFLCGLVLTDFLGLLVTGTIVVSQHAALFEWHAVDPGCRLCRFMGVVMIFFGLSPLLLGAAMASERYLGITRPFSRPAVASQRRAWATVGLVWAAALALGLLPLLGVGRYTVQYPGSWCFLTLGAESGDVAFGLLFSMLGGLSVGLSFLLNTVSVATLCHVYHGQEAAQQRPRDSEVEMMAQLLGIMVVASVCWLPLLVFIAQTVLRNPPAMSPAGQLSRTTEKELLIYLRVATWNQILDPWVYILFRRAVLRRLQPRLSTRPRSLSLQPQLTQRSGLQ
Format: functional, cell-based.

Experiment [8] has as its target T6, Thromboxane A2 receptor. Format: functional.

Each structure is given as a SMILES string. Where “and” joins values, the source holds several entries; their conditions need not be identical. Identical values can stand only once.
Also: assay procedure not described here.

In experiment [1], `COc1ccccc1N1CCN(CCCNc2cc(=O)n(C)c(=O)n2C)CC1` came in with an AC50 of 260 nM.
For `CC(C[N+](C)(C)C)OC(N)=O` (stereo not given) [BETHANECHOL], the AC50 in experiment [2] is more than 30000 nM; in experiment [3], 26000 nM.
With `CCCCc1ncc(/C=C(\Cc2cccs2)C(=O)O)n1Cc1ccc(C(=O)O)cc1` [EPROSARTAN], the AC50 was 4.2 nM in experiment [4]; 5 nM and 5.5 nM in experiment [5]; more than 100000 nM in experiment [6].
Regarding `CC(C)OC(=O)CCC/C=C\C[C@@H]1[C@@H](CC[C@@H](O)CCc2ccccc2)[C@H](O)C[C@@H]1O` [LATANOPROST], the AC50 at Thromboxane A2 receptor [7] and at Thromboxane A2 receptor [8] was more than 10000 nM in each case.
`CCCc1nc(C(C)(C)O)c(C(=O)OCc2oc(=O)oc2C)n1Cc1ccc(-c2ccccc2-c2nnn[nH]2)cc1` [OLMESARTAN MEDOXOMIL]: the half-maximal activity concentration (AC50) in experiment [4] came out at 1.7 nM; in experiment [6], 74300 nM.
